“Also recorded” adds a separate entry of the source. Where two headings read alike, the source gives them in different places.
How the values were obtained:
[1] = test system: CYP1A2 mRNA (suppression of expression); assay: CYP1A2 mRNA level in human hepatocytes after 48 h treatment (RT-PCR); type: cell-based; conditions: 1.25–2500 nM
Excerpt: (§1) 12.5 (Systat Software, Inc.; San Jose, CA, USA). […] 1.1 (Systat Software, Inc.).

CYP3A4 mRNA = assay: in vitro; conditions: human, hepatocytes, IC50, suppression of CYP3A4 mRNA expression, 1.25–2500 nM
[2] = rats, intravenous [3H]-mertansine 0.2 mg/kg, cited from earlier work
CYP2B6 mRNA = CYP2B6 mRNA level in human hepatocytes after 48 h treatment (RT-PCR); type: cell-based; conditions: Mean ± SD of three human hepatocyte lots, 48 h, 1.25–2500 nM, read-out: IC50, suppression of CYP2B6 mRNA expression
Excerpt: as §1

UGT1A1 mRNA = UGT1A1 mRNA level in human hepatocytes after 48 h treatment (RT-PCR); conditions: human, IC50, suppression of UGT1A1 mRNA expression, 1.25–2500 nM
UGT1A4 mRNA = UGT1A4 mRNA level in human hepatocytes after 48 h treatment (RT-PCR); conditions: for IC50: read-out: IC50, suppression of UGT1A4 mRNA expression, 1.25–2500 nM
[3] = MTS colorimetric cytotoxicity assay in human hepatocytes; type: cell-based; conditions: human hepatocytes (lot 319), 48 h mertansine treatment (1.25–6250 nM), lot 319, MTS
Protocol: The hepatocytes were incubated with 0.0125, 0.0625, 0.125, 0.250, 0.625, 1.25, 2.5, and 6.25 μM mertansine in triplicate for 48 h at 37 °C in 5% CO2. The medium was exchanged with fresh medium containing mertansine every 24 h. Then, 20 μL of MTS solution was added to each well and the plate was incubated for 1 h at 37 °C in 5% CO2. The absorbance of the reaction mixture was measured at 492 nm.

UGT1A9 mRNA = UGT1A9 mRNA level in human hepatocytes after 48 h treatment (RT-PCR); conditions: plated cryopreserved human hepatocytes, IC50, suppression of UGT1A9 mRNA expression, 1.25–2500 nM
CYP2C8 = test system: CYP2C8; design: method as in PMID 25048520, PMID 22752008; conditions: human liver microsomes, competitive; read-out: Ki, CYP2C8-mediated paclitaxel 6α-hydroxylation; cited from earlier work
UGT2B7 = biological target: T1, UGT2B7 (Homo sapiens, UniProt P16662); assay: Inhibition of UGT2B7-catalyzed naloxone 3-β-D-glucuronidation in ultrapooled human liver microsomes; type: in vitro ADME
T1 construct: ultrapooled human liver microsomes (0.2 mg/mL); from tissue; host or cells: human liver microsomes (ultrapooled)
T1 sequence (P16662 24-529): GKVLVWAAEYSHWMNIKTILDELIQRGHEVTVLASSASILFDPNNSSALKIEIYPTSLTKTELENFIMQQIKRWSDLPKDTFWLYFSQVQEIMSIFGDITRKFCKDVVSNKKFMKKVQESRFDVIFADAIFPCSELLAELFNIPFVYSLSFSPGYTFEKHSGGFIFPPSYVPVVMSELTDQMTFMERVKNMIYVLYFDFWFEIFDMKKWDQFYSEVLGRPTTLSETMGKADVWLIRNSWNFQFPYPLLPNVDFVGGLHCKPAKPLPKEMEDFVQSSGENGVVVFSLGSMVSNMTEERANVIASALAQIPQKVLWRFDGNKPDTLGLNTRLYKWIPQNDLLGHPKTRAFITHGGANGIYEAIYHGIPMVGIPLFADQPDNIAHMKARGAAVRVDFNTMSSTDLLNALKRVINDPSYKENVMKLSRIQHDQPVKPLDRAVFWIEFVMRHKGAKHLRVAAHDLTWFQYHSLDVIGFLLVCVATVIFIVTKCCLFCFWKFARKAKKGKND
Protocol: The inhibitory potential of mertansine on UGT1A1, UGT1A3, UGT1A4, UGT1A6, UGT1A9, and UGT2B7 activities was evaluated using liquid chromatography–tandem mass spectrometry (LC-MS/MS) with a cocktail of UGT substrates and ultrapooled human liver microsomes. Each incubation mixture was prepared to a final volume of 100 μL as follows: ultrapooled human liver microsomes (0.2 mg/mL), 5 mM UDPGA, 10 mM magnesium chloride, alamethicin (25 μg/mL), 50 mM Tris buffer (pH 7.4), various concentrations of mertansine in methanol (final concentrations of 0.01–50 μM), and the cocktail sets of UGT enzyme-specific substrates. Two cocktail sets were used: set A contained 0.5 μM SN-38 for UGT1A1, 2 μM chenodeoxycholic acid for UGT1A3, and 0.5 μM trifluoperazine for UGT1A4; and set B contained 1 μM N-acetylserotonin for UGT1A6, 0.2 μM mycophenolic acid for UGT1A9, and 1 μM naloxone for UGT2B7. The reactions were initiated by adding UDPGA and incubated in a shaking water bath for 60 min at 37 °C. Reactions were terminated by adding 50 μL of ice-cold acetonitrile containing internal standards (IS, propofol glucuronide for set A and meloxicam for set B). Incubation mixtures were centrifuged at 13,000 g for 8 min at 4 °C. Next, 50 μL of each supernatant of sets A and B was mixed, and aliquots (5 μL) were analyzed using LC-MS/MS. […]

[4] = Mean ± SD of three human hepatocyte lots, 48 h
[5] = human hepatocytes Lot 319, 48 h
[6] = human hepatocytes Lot 321, 48 h
[7] = human hepatocytes Lot 361, 48 h

COc1cc2cc(c1Cl)N(C)C(=O)CC(OC(=O)C(C)N(C)C(=O)CCS)C1(C)OC1C(C)C1CC(O)(NC(=O)O1)C(OC)C=CC=C(C)C2 (stereo not shown) [mertansine, Mertansine]
IC50 at 48 h [1, 4]: 93.7 ± 109 nM
IC50 at 48 h [1, 5]: 220 nM
IC50 at 48 h [1, 6]: 34.3 nM
IC50 at 48 h [1, 7]: 27.3 nM
IC50 (CYP3A4 mRNA; [4]): 161 ± 167 nM
IC50 (CYP3A4 mRNA; [5]): 344 nM
IC50 (CYP3A4 mRNA; [6]): 120 nM
IC50 (CYP3A4 mRNA; [7]): 16.8 nM
Tissue-to-blood radioactivity ratios ([2]; highly perfused organs, for 24 h): 1~11
Biliary excretion of dosed radioactivity ([2]; over 72 h): ~ 46%
Dosed radioactivity recovered in urine ([2]; over 120 h): 5%
IC50 at 48 h (CYP2B6 mRNA): 36.8 ± 18.3 nM
IC50 at 48 h (UGT1A1 mRNA; [4]): 857 ± 782 nM
IC50 at 48 h (UGT1A1 mRNA; [5]): 784 nM
IC50 at 48 h (UGT1A1 mRNA; [6]): 113 nM
IC50 at 48 h (UGT1A1 mRNA; [7]): 1670 nM
IC50 at 48 h (UGT1A4 mRNA; human): > 2500 nM
IC50 (UGT1A4 mRNA; [5]): > 2500 nM
IC50 (UGT1A4 mRNA; [6]): > 2500 nM
IC50 (UGT1A4 mRNA; [7]): > 2500 nM
viability at 48 h [3]: > 96.2%
IC50 at 48 h (UGT1A9 mRNA; [4]): 54.1 ± 29.1 nM
IC50 at 48 h (UGT1A9 mRNA; [5]): 86.9 nM
IC50 at 48 h (UGT1A9 mRNA; [6]): 31.4 nM
IC50 at 48 h (UGT1A9 mRNA; [7]): 44.1 nM
Ki (CYP2C8): 11 µM
Inhibition of UGT2B7 enzyme activity (UGT2B7; human liver microsomes, mertansine at 50 µM): no inhibition; also recorded: negligibly inhibited
IC50, naloxone 3-β-D-glucuronidation (UGT2B7) (UGT2B7; ultrapooled human liver microsomes, 1 µM naloxone (cocktail)): No inhibition
